One assay deals with T1, full length human Androgen Receptor (AR) (Homo sapiens, UniProt P10275).
T1 construct: transiently transfected in T225 cm^2 flasks with a full length human Androgen Receptor (AR) cDNA; expressed in transfected cells; host or cells: CV-1 cells (ATCC CCL-70), transiently transfected with AR cDNA in pcDNA3 and ARE-luciferase in pGL3
T1 sequence (P10275 1-920): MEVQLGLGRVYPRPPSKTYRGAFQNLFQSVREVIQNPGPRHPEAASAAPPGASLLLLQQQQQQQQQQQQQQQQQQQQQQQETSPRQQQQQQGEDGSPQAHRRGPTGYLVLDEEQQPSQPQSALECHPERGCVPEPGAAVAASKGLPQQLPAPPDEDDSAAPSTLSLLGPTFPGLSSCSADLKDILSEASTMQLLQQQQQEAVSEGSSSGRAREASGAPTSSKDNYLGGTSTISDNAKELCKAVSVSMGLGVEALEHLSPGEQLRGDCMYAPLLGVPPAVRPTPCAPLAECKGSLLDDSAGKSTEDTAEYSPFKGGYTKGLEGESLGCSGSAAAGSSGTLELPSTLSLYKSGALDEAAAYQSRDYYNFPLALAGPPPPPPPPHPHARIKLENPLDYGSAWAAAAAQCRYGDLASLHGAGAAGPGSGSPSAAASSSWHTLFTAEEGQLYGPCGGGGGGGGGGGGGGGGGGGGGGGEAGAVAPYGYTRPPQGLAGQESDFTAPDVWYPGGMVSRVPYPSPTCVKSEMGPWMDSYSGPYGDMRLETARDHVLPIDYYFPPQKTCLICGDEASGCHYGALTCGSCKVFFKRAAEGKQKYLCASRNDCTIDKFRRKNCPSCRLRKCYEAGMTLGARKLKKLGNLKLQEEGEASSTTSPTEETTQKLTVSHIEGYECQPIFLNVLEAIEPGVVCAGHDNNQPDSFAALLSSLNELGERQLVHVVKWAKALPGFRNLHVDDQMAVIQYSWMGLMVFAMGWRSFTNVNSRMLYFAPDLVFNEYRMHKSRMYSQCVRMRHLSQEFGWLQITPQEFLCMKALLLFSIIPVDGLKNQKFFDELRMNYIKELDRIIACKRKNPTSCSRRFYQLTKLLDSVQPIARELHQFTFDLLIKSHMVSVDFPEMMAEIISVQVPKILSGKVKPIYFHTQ
Description: Androgen Receptor-Mediated Transcriptional Assay (ARE-luciferase reporter in transiently transfected CV-1 cells). It counts as cell-based.
Conditions: not given
As to the method:
Androgen Receptor-Mediated Transcriptional Assay Summary
CV-1 cells (American Tissue Culture Collection cat# CCL-70) were expanded in Growth Media and transiently transfected in T225 cm^2 flasks with a full length human Androgen Receptor (AR) cDNA in the pcDNA3 expression vector and a human Androgen Response Element (ARE)-luciferase cDNA in the pGL3 vector (both from Invitrogen). DNA (μg) and Lipofectamine (μl) at a ratio of 1:3 were incubated with the cells in a total volume of 55 mL Basal Media for 4 hours. Cells were harvested by trypsinization and frozen back (−150° C. cryomed) at a concentration of 4.3 million cells/mL.
On the day of the assay, frozen cells were thawed and re-suspended in Re-suspension Media and plated at 40,000 cells/well (in 100 μL volume) in 96 well white plates and were incubated for at least 4 h at 37° C., 5% CO2. After incubation, cells were treated with the compounds to be screened. 10 mM stocks of the compounds were serially diluted 1:10 in 100% DMSO followed by an additional 1:100 dilution in Assay Media. These dilution series were added to the cell plates resulting in a further 1:10 dilution and a final % DMSO of 0.1%. The vehicle control wells also contained this dilution of DMSO and the positive control wells contained […] (DHT) as an AR agonist at final concentration of 0.3 nM in 0.1% DMSO. Cells were incubated for 16-18 hours at 37° C. and 5% CO2. Then the culture media was removed from and the cells were lysed in 20 μL of cell lysis reagent for 5 minutes at room temperature. 50 μL of luciferase reagent was added to each well and luminescence, over 5 seconds, was measured.
EC50 (half maximal effective concentration) was calculated from concentration series plots which generated sigmoidal curves. Xlfit software was used to plot the best fit of the % effect vs concentration and to calculate the EC50.
Reagents and Materials used in the Androgen Receptor-Mediated Transcriptional Assay include the following: • Growth Media—DMEM/high glucose—10% FBS: 500 ml phenol red DMEM/high glucose (Gibco, Grand Island N.Y., cat #10569-010), 10% non heat-inactivated Fetal Bovine Serum (FBS) (Atlanta Biologicals, Norcross Ga., cat #S-12450), 1% Nonessential Amino Acids (Gibco, cat #11140-050), 1% Penicillin-Streptomycin (Gibco, cat #15140-122) • Basal Media—phenol red free DMEM/high glucose (Gibco, cat #31053-028)+1% Na Pyruvate (Gibco, cat #11360-070), 1% Nonessential Amino Acids (Gibco, cat #11140-050), 1% GlutaMAX-I (Gibco, cat #35050-061) • Re-suspension Media—basal media+1% Penicillin-Streptomycin (Gibco, cat #15140-122) • Assay Media—basal media+5% charcoal stripped FBS (HyClone, Logan Utah, Cat #SH30068)+1% Penicillin-Streptomycin (Gibco, cat #15140-122) • Cell Lysis Reagent—Promega, Cat #PAE1531 • Luciferase Reagent—Promega, Cat #PAE1483
A general note: In a reporter assay the amount or activity of a reporter protein is the signal.
As a reminder, the EC50 is the concentration giving half of the maximal effect. `N#Cc1nccc2cc(N3CCC[C@@H]3[C@H](O)C(F)(F)F)ccc12` (single isomer, unassigned) [Compound 35] came in with an EC50 of 7.4 nM.

Consider `N#Cc1nccc2cc(N3CCC[C@H]3[C@H](O)C(F)(F)F)ccc12` (single isomer, unassigned) [Compound 36], for which the EC50 worked out at 120 nM. The compound `N#Cc1nccc2cc(N3CCC[C@H]3[C@@H](O)C(F)(F)F)ccc12` (single isomer, unassigned) [Compound 37] gave an EC50 of 9.1 nM. `C[C@H]1CC[C@@H]([C@H](O)C(F)(F)F)N1c1ccc2c(C#N)nccc2c1` (single isomer, unassigned) [Compound 38] showed an EC50 of 187 nM. `C[C@H](O)[C@H]1CC[C@@H](C)N1c1ccc2c(C#N)nccc2c1` (single isomer, unassigned) [Compound 39] yielded a 50% effective concentration (EC50) of 37.3 nM. Same read-out and setting: the same measure for `C[C@H]1CNS(=O)(=O)N1c1ccc2c(C#N)nccc2c1` [Compound 1, 6-[(3S)-3-methyl-1,1-dioxido-1,2,5-thiadiazolidin-2-yl]isoquinoline-1-carbonitrile]: 15 nM. On the same count and under the same terms, the value for `CC1(C)CNS(=O)(=O)N(c2ccc3c(C#N)nccc3c2)C1` [Compound 13, 6-(4,4-dimethyl-1,1-dioxido-1,2,6-thiadiazinan-2-yl)isoquinoline-1-carbonitrile] was 0.7 nM; that for `N#Cc1nccc2cc(N3CC4(CC4)CNS3(=O)=O)ccc12` [Compound 14, 6-(6,6-dioxido-6-thia-5,7-diazaspiro[2.5]oct-5-yl)isoquinoline-1-carbonitrile] was 22 nM. On the same count and under the same terms, the same measure for `C[C@@H](Nc1ccc2c(C#N)nccc2c1)[C@H](O)C(F)(F)F` [Compound 23, 6-{[(2R,3S)-4,4,4-trifluoro-3-hydroxybutan-2-yl]amino}isoquinoline-1-carbonitrile]: 5.1 nM; for `C[C@@H]1CC[C@H]([C@@H](O)C(F)(F)F)N1c1ccc2c(C#N)nccc2c1` [Compound 30, 6-{(2R,5R)-2-methyl-5-[(1R)-2,2,2-trifluoro-1-hydroxyethyl]pyrrolidin-1-yl}isoquinoline-1-carbonitrile]: 0.1 nM.

The same assay, now with this note: CV-1 cells transfected with human AR and ARE-luciferase; 16-18 hours incubation; luminescence; read-out: EC50 Values for Compounds 1-22 from Androgen Receptor-Mediated Transcriptional Assay.
For `C[C@H]1CN(C)S(=O)(=O)N1c1ccc2c(C#N)nccc2c1` [Compound 5], the EC50 was 5 nM.

With `C[C@H]1CCS(=O)(=O)N1c1ccc2c(C#N)nccc2c1` [Compound 8, 6-[(3S)-3-methyl-1,1-dioxido-1,2-thiazolidin-2-yl]isoquinoline-1-carbonitrile], the EC50 is 271 nM. On the same count and under the same terms, the same measure for `C[C@@H]1CNS(=O)(=O)N(c2ccc3c(C#N)nccc3c2)C1` [Compound 10, 6-[(4R)-4-methyl-1,1-dioxido-1,2,6-thiadiazinan-2-yl]isoquinoline-1-carbonitrile]: 0.4 nM; for `C[C@H]1CNS(=O)(=O)N(c2ccc3c(C#N)nccc3c2)C1` [Compound 11, 6-[(4S)-4-methyl-1,1-dioxido-1,2,6-thiadiazinan-2-yl]isoquinoline-1-carbonitrile]: 687 nM. For the compound `N#Cc1nccc2cc(N3C[C@H](c4ccccc4)CNS3(=O)=O)ccc12` [Compound 12], the EC50 stood at 217 nM.

For the origin of these results see patent publication US9328104B2, “Selective androgen receptor modulators” (Pfizer Inc., priority 2012, dated 2016).
